Reference: US20230255930A1, “METHOD OF INCREASING THE POPULATION OF COPROCOCCUS SPP. IN THE GUT MICROBIOME” (priority 2020, published 2023)

How the values were obtained:
Coprococcus [1] = assay: In vitro intestinal batch fermentation with human fecal suspension; 16S rRNA Illumina sequencing; type: cell-based; details: fermentation supernatant at 24 h, versus control
Procedure: At the start of this intestinal batch fermentation incubation, all test ingredients were added from stock solutions to the modified nutritional medium, containing (g/l): 2.5 K2HPO4, 10.9 KH2PO4, 2 NaHCO3, 2 yeast extract, 2 peptone, 1 mucin, 0.5 cysteine, 2 Tween 80, 2 glucose, 2 starch, 2 cellobiose, 0.1 NaCl, 0.01 MgSO4.7H2O, 0.01 CaCl2.6H2O, 0.05 hemin, 0.5 bile salts.
The following compounds were added from stock solutions prepared in water: • Beta-carotene, • Vitamin B3, • Vitamin B5, • Vitamin B7, • Fructooligosaccharides Fructooligosaccharides are included as a positive control.
As a source of the microbial community, freshly prepared fecal suspension from a human donor was added to the reactors. […] All tests, except the blanks, were performed in single repetition. Incubation conditions were 48 h at 37° C., under shaking (90 rpm) and anaerobic conditions.
Microbial composition: Illumina sequencing was performed at the start and after 24 h of incubation. The technique targets the16S rRNA gene that consists of variable and conserved regions, spread over the gene. Due to their key role in protein expression, the conserved regions are characterized by very low evolutionary rates.
The methodology applied involves primers that span 2 hypervariable regions (V3-V4) of the 16S rRNA gene. Using a pair-end sequencing approach, sequencing of 2×250 bp results in 424 bp amplicons. Such fragments are taxonomically more informative as compared to smaller fragments. In brief, mothur (v. 1.42.0) was used to assemble reads into contigs, perform alignment-based quality filtering (alignment to the mothur-reconstructed SILVA SEED alignment, v. 123), remove chimeras, assign taxonomy using a naïve Bayesian classifier and SILVA NR v132 and cluster contigs into OTUs. All sequences classified as Eukaryota, Archaea, Chloroplasts and Mitochondria were removed, as well as sequences that could not be classified. For each OTU, representative sequences were selected as the most abundant sequence within that OTU.

Coprococcus [2] = assay: Clinical study of colon-targeted vitamins; fecal relative abundance of Coprococcus by shotgun metagenomics; type: in vivo; details: human feces, colon-targeted delivery for four weeks, compared to baseline
From the text: Twelve participants were allocated to each of the six vitamin groups, and 24 participants allocated to the placebo group. […] To be considered eligible for enrolment into the study, participants have to be able to give written informed consent; be aged between 20 and 50 years of age; have a BMI of between 18.5 - 30 Kg/m2; have a stable body weight (< 5% change) over the past 3-months; be in generally good health, as determined by the investigator; have not consumed dietary supplements, prebiotic, probiotic, dietary or fiber-rich supplements within 4 weeks prior to baseline visit and be willing to avoid these supplements until the end of the study; be willing to avoid liver consumption for the duration for the study, be willing to maintain their current level of physical activity for the duration of the study; and be willing to consume the IP daily for the duration of the study. Any participants who have a typical fiber intake >30 g/day; were pregnant or planning to become pregnant, have consumed disallowed medications; had made major dietary changes over the past three months or had planned major lifestyle changes; had taken part in a study within the previous 60 days; or had any ongoing or previous illness that the investigator deemed would impact on the objectives of the study were excluded. […] Each subject provided written informed consent before inclusion in the study.
At the final visit (Visit 3) participants retuned a fecal samples collected in the previous 48 hours. […] Participants returned their IP and compliance was assessed. […]

Coprococcus comes = assay: Clinical study of colon-targeted vitamins; fecal relative abundance of Coprococcus comes by shotgun metagenomics; type: in vivo; details: human feces, colon-targeted delivery for four weeks
From the text: Twelve participants were allocated to each of the six vitamin groups, and 24 participants allocated to the placebo group. All 96 participants completed the intervention. To be considered eligible for enrolment into the study, participants have to be able to give written informed consent; be aged between 20 and 50 years of age; have a BMI of between 18.5 - 30 Kg/m2; have a stable body weight (< 5% change) over the past 3-months; be in generally good health, as determined by the investigator; have not consumed dietary supplements, prebiotic, probiotic, dietary or fiber-rich supplements within 4 weeks prior to baseline visit and be willing to avoid these supplements until the end of the study; be willing to avoid liver consumption for the duration for the study, be willing to maintain their current level of physical activity for the duration of the study; and be willing to consume the IP daily for the duration of the study. […]
The trial was a randomized, double-blind, placebo-controlled, parallel study in which subjects received either the vitamin supplement or placebo over four weeks. […] Before the randomization visit, participants food frequency questionnaires were analyzed to ensure their typical fiber intake is <30 g fiber/day. […]
At the baseline visit (Visit 2), participants retuned a fecal samples collected in the previous 48 hours and eligibility was assessed. […]

CC1=C(/C=C/C(C)=C/C=C/C(C)=C/C=C/C=C(C)/C=C/C=C(C)/C=C/C2=C(C)CCCC2(C)C)C(C)(C)CCC1 [beta-carotene, β-carotene]
Coprococcus relative abundance (Coprococcus [1]; dose 1x): increased
Coprococcus relative abundance (Coprococcus [1]; dose 5x): increased

NC(=O)c1cccnc1 [vitamin B3, Niacinamide]
Coprococcus relative abundance (Coprococcus [1]; doses 0.2x, 1x, 5x tested): no distinct increase

CC(C)(CO)[C@@H](O)C(=O)NCCC(=O)O [vitamin B5, Pantothenic acid]
Coprococcus relative abundance (Coprococcus [1]; dose 0.2x): increased
Coprococcus relative abundance (Coprococcus [1]; dose 5x): increased

O=C(O)CCCC[C@@H]1SC[C@@H]2NC(=O)N[C@@H]21 [vitamin B7, Biotin]
Coprococcus relative abundance (Coprococcus [1]; doses 0.2x, 1x, 5x tested): no distinct increase

O=C1O[C@H]([C@@H](O)CO)C(O)=C1O [vitamin C, ascorbic acid]
relative abundance of Coprococcus (Coprococcus [2]): not

C=C1CC[C@H](O)C/C1=C/C=C1\CCC[C@]2(C)[C@@H]([C@H](C)CCCC(C)C)CC[C@@H]12 [vitamin D3, cholecalciferol]
relative abundance of Coprococcus (Coprococcus [2]): trends for an increase
Coprococcus comes relative abundance (Coprococcus comes; compared to baseline (p = 0.04)): significant increase
Coprococcus comes relative abundance (Coprococcus comes; compared to placebo group (p = 0.028)): significant increase

vitamin A
relative abundance of Coprococcus (Coprococcus [2]): trends for an increase
